Test systems include SNB-75 CNS; CCRF-CEM leukemia; HT29 colon; UO-31 renal; MDA-MB-231 breast; T-47D breast; LOX IMVI melanoma; NCI-H23 lung; HOP-62 NSCLC; HCC-2998 colon.
What all share (assay): NCI anticancer screen, dose series, 48 h

Each structure is given as a SMILES string. Several values for one entry are separate records, joined by “and”; a condition that tells them apart may be missing. Identical values can stand only once.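 Assay format: 96-well plates, 48-hour exposure. The concentration for 50% growth inhibition is given as GI50. The concentration for full growth arrest is given as TGI.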 Some results are limits rather than exact numbers.

For `c1ccc2cc(NCNc3ccc4ccccc4c3)ccc2c1`, the TGI worked out at 30.9 µM in the assay with SNB-75 CNS; 62.6 µM with CCRF-CEM leukemia; 41.3 µM in the assay with HT29 colon; 41.6 µM with UO-31 renal; 38.9 µM in the assay with MDA-MB-231 breast; 49.4 µM in the assay with T-47D breast. Further, the TGI in the assay with LOX IMVI melanoma was found to be 25.9 µM; with NCI-H23 lung, 30.5 µM; with HOP-62 NSCLC, 51.3 µM.
In the case of `Nc1nc(N)c(-c2ccccc2)c(C(=O)Nc2ccccc2)n1`, the TGI with SNB-75 CNS, in the assay with CCRF-CEM leukemia, in the assay on HT29 colon, in the assay with UO-31 renal, with LOX IMVI melanoma and with NCI-H23 lung was greater than 100 µM each time.
As for `COc1ccc2cc(C(=O)/C=C/c3ccc(N(C)C)cc3)ccc2c1`, the GI50 is greater than 100 µM in the assay with SNB-75 CNS; greater than 100 µM with HT29 colon; greater than 100 µM with UO-31 renal; 40.2 µM with MDA-MB-231 breast; greater than 100 µM in the assay with T-47D breast; 48.1 µM in the assay on LOX IMVI melanoma. The GI50 is 41.6 µM with NCI-H23 lung and greater than 100 µM in the assay on HOP-62 NSCLC. Also, the TGI in the assay on SNB-75 CNS, in the assay on HT29 colon, with UO-31 renal, in the assay on MDA-MB-231 breast, in the assay with T-47D breast and in the assay on LOX IMVI melanoma was greater than 100 µM in each case. The TGI in the assay with NCI-H23 lung and in the assay with HOP-62 NSCLC was greater than 100 µM throughout.
As for `COc1ccc(NC(=O)CC/C(CC(=O)c2ccco2)=N/NC(N)=S)cc1`, the TGI with CCRF-CEM leukemia, with HT29 colon, in the assay on UO-31 renal, in the assay with LOX IMVI melanoma, with HCC-2998 colon and in the assay with NCI-H23 lung was greater than 100 µM in each case. The compound also came in with a TGI with HOP-62 NSCLC greater than 100 µM.
As to `CC1=NN(c2ccc(S(=O)(=O)O)cc2)C(=O)/C1=C/c1ccc(Cl)cc1`, the TGI in the assay with SNB-75 CNS, in the assay on CCRF-CEM leukemia, in the assay on HT29 colon, with UO-31 renal, in the assay on MDA-MB-231 breast and with T-47D breast was greater than 100 µM throughout. Besides, the TGI in the assay with LOX IMVI melanoma, in the assay with NCI-H23 lung and in the assay with HOP-62 NSCLC was greater than 100 µM throughout.
On to `CCCCNC(=O)C1C(=O)N(CCCC)C(=O)/C1=N\N` (stereo not drawn), for which the TGI with SNB-75 CNS, in the assay on HT29 colon, with UO-31 renal, in the assay with LOX IMVI melanoma, with HCC-2998 colon and in the assay on NCI-H23 lung was greater than 100 µM in each case. In addition, in the assay with HOP-62 NSCLC, the TGI is greater than 100 µM.
With `CCOC(=O)C(N=C(c1ccccc1)c1ccccc1)N(C(=O)OC(C)(C)C)C(=O)OC(C)(C)C` (stereo not drawn), the TGI with SNB-75 CNS, in the assay on HT29 colon, with UO-31 renal, with HCC-2998 colon and in the assay on NCI-H23 lung was greater than 100 µM each time.
With `CC(N)(/C=C/c1ccccc1)C(=O)O` (stereo not drawn), the TGI in the assay with HT29 colon, in the assay with UO-31 renal, in the assay on MDA-MB-231 breast, in the assay with LOX IMVI melanoma, in the assay with NCI-H23 lung and in the assay with HOP-62 NSCLC was greater than 100 µM each time.
Take `CCN1C(=O)N(CC)C2C1NN=c1s/c(=C\c3ccco3)c(=O)n12` (stereo not drawn): the GI50 was 0.239 µM in the assay with SNB-75 CNS; 0.368 µM in the assay on CCRF-CEM leukemia; 0.361 µM in the assay on HT29 colon; 0.852 µM in the assay with UO-31 renal; 0.961 µM with MDA-MB-231 breast; 0.653 µM in the assay with LOX IMVI melanoma. Moreover, the figures for the GI50 with HCC-2998 colon, in the assay on NCI-H23 lung and in the assay on HOP-62 NSCLC were 1.98 µM, 1.1 µM and 0.722 µM, respectively. For the same compound, the TGI in the assay with CCRF-CEM leukemia was greater than 100 µM; in the assay with HT29 colon it was greater than 100 µM; in the assay with UO-31 renal, greater than 100 µM; with MDA-MB-231 breast, 41.2 µM; in the assay on LOX IMVI melanoma, greater than 100 µM; in the assay with HCC-2998 colon, greater than 100 µM. Also, the TGI in the assay with NCI-H23 lung and in the assay with HOP-62 NSCLC was greater than 100 µM each time.
`C#CCN(Cc1nc2cc(C(F)(F)F)ccc2nc1-c1ccccc1)c1ccc(C)cc1`: the TGI with SNB-75 CNS is greater than 25.2 µM; with CCRF-CEM leukemia, greater than 100 µM; with HT29 colon, greater than 32 µM; in the assay with UO-31 renal, 45.5 µM; in the assay on MDA-MB-231 breast it was 40.4 µM; in the assay with T-47D breast, 31.6 µM. Further, the TGI was greater than 48.5 µM in the assay with LOX IMVI melanoma, greater than 34.7 µM in the assay on NCI-H23 lung and 33.9 µM in the assay with HOP-62 NSCLC. Also, the GI50 was greater than 55.7 µM in the assay with CCRF-CEM leukemia; 12.4 µM in the assay with HT29 colon; 13.2 µM in the assay on UO-31 renal; 9.39 µM in the assay on MDA-MB-231 breast; 2.85 µM with T-47D breast; 24.8 µM with LOX IMVI melanoma. In addition, the GI50 was 8.48 µM with NCI-H23 lung and 4.41 µM in the assay with HOP-62 NSCLC.
As to `COc1cc2c(cc1OC)CC(=O)Nc1cc(OC)c(OC)cc1CC2`, the TGI in the assay on SNB-75 CNS, in the assay on CCRF-CEM leukemia, in the assay on HT29 colon, in the assay with UO-31 renal, in the assay on LOX IMVI melanoma and in the assay on HCC-2998 colon was greater than 100 µM in each case. The TGI in the assay with NCI-H23 lung and in the assay on HOP-62 NSCLC was greater than 100 µM each time.
On to `Nc1nc(Cl)cc(NCC(O)CO)n1` (stereo not drawn), for which the TGI in the assay with SNB-75 CNS, in the assay with CCRF-CEM leukemia, in the assay on HT29 colon, in the assay on UO-31 renal, in the assay on LOX IMVI melanoma and with HCC-2998 colon was greater than 100 µM in each case. Moreover, the TGI in the assay on NCI-H23 lung and in the assay with HOP-62 NSCLC was greater than 100 µM in each case.
Consider `COc1cc2c(c(OC)c1OC)-c1ccc(OC)c(=O)cc1[C@@H](NC(C)=O)CC2`, for which the GI50 in the assay with UO-31 renal was 4.74 µM and 1.09 µM and 1.33 µM; in the assay on MDA-MB-231 breast it was 7.13 µM; with T-47D breast, greater than 100 µM; in the assay on HOP-62 NSCLC it was 0.866 µM. Besides, the TGI in the assay on UO-31 renal is greater than 625 µM; in the assay on MDA-MB-231 breast, greater than 100 µM; with T-47D breast, greater than 100 µM; with LOX IMVI melanoma it was greater than 100 µM; in the assay on HCC-2998 colon, 1.01 µM and 7.43 µM; in the assay on HOP-62 NSCLC it was greater than 625 µM.
With `CCC(O)C1Cc2c(C)cc3c(c2O1)C(=O)c1ccccc1C3=O` (stereo not drawn), the TGI with SNB-75 CNS was greater than 100 µM; with CCRF-CEM leukemia it was greater than 100 µM; in the assay on HT29 colon it was greater than 100 µM; in the assay with UO-31 renal, 61.2 µM; with LOX IMVI melanoma, 93.7 µM; in the assay on HCC-2998 colon it was greater than 100 µM. Further, the TGI in the assay on NCI-H23 lung and with HOP-62 NSCLC was greater than 100 µM throughout.

These data come from PubChem BioAssay (NCI).
